Data published in patent US11000033B2, “Ketone or oxime compound, and herbicide” (NISSAN CHEMICAL CORPORATION, priority 2014, dated 2021).

Legend:
Assay type in all cases: in vivo
rapeseed = assay: Test Example 4: effect on crop by soil treatment (symbol g); details: application herbicide amount 320 g/ha
Summary of the method: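 Plants grew in a 25° C. to 30° C. greenhouse after spot-sowing of seeds, including beet, rapeseed, wheat and rice, into sterilized diluvial soil under roughly 1.5 cm of cover soil.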

Lolium multiflorum Lam. [1] = assay: Test Example 5: herbicidal effect by foliage application, plastic box (symbol K); details: 320 g/ha, 3 weeks after application
Summary of the method: (§1)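 Greenhouse foliar test: seedlings at 14 days, grown 25° C. to 30° C. in sterilized diluvial soil; compound applied as an aqueous dilution of an emulsion; response read 3 weeks after spraying.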

Stellaria media = assay: Test Example 5: herbicidal effect by foliage application, plastic box (symbol P); details: 320 g/ha, 3 weeks after application
Summary of the method: as §1

Lolium multiflorum Lam. [2] = assay: Test Example 4: herbicidal effect by soil treatment (symbol K); details: application herbicide amount 320 g/ha
Summary of the method: (§2)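 Seeds were sown in sterilized diluvial soil, covered with about 1.5 cm of soil, and the soil surface was sprayed with a water-diluted emulsion of the compound at a predetermined rate. Plants grew in a greenhouse at 25° C. to 30° C.; effects were scored visually 3 weeks after application.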

Abutilon theophrasti = assay: Test Example 5: herbicidal effect by foliage application, plastic box (symbol M); details: 320 g/ha, 3 weeks after application
Summary of the method: as §1

[3] = tested on: Echinochloa oryzacola Vasing.; assay: Test Example 1: herbicidal activity, application before weed generation in submerged conditions (symbol A); details: application herbicide amount 320 g/ha
Summary of the method: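 Mixed weed seeds sown in alluvial soil under 4 cm of water, with rice seedlings at the 2.5-leaf stage added. Same-day treatment: emulsion diluted to a set herbicide amount onto the water. Three weeks at 25–30 °C, then graded on a six-step scale.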

Setaria viridis = assay: Test Example 5: herbicidal effect by foliage application, plastic box (symbol G); details: 320 g/ha, 3 weeks after application
Summary of the method: as §1

[4] = tested on: Echinochloa oryzacola Vasing.; assay: Test Example 2: herbicidal activity, application during weed generation in submerged conditions (symbol A); details: Table 23; application herbicide amount 320 g/ha; grade 0-5 by criteria of Test Example 1
Summary of the method: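 Each pot contained alluvial soil under 4 cm of water with seeds of all three weeds sown together. Following growth at 25° C. to 30° C. to the one- to two-leaf stage, the floodwater received diluted emulsion at a predetermined amount; visual assessment followed at 3 weeks.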

Avena fatua = assay: Test Example 4: herbicidal effect by soil treatment (symbol I); details: application herbicide amount 320 g/ha
Summary of the method: as §2

Alopecurus myosuroides = assay: Test Example 4: herbicidal effect by soil treatment (symbol J); details: application herbicide amount 320 g/ha
Summary of the method: as §2

[5] = tested on: Echinochloa crus-galli var. crus-galli; assay: Test Example 4: herbicidal effect by soil treatment (symbol H); details: application herbicide amount 320 g/ha
Summary of the method: as §2

Amaranthus retroflexus = assay: Test Example 5: herbicidal effect by foliage application, plastic box (symbol N); details: 320 g/ha, 3 weeks after application
Summary of the method: as §1

corn = assay: Test Example 4: effect on crop by soil treatment (symbol c); details: application herbicide amount 320 g/ha
Summary of the method: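 Soil-treatment setup: crop and weed seeds were spot-sown into sterilized diluvial soil, then buried beneath approximately 1.5 cm of it, and the boxes were housed in a 25–30° C. greenhouse.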

rice plant = assay: Test Example 5: effect on crop by foliage application, plastic box (symbol b); details: 320 g/ha, 3 weeks after application
Summary of the method: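 A greenhouse held between 25° C. and 30° C. was used to grow plants sown spot-wise, beneath ~1.5 cm of soil, in boxes of sterilized diluvial soil.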

Veronica persica = assay: Test Example 5: herbicidal effect by foliage application, plastic box (symbol R); details: 320 g/ha, 3 weeks after application
Summary of the method: as §1

| Structure (SMILES) | g (rapeseed) effect on crop grade (rapeseed) | K: Lolium multiflorum Lam., herbicidal effect grade (Lolium multiflorum Lam. [1]) | P: Stellaria media, herbicidal effect grade (Stellaria media) | K (Lolium multiflorum Lam.) herbicidal effect grade (Lolium multiflorum Lam. [2]) | M: Abutilon theophrasti, herbicidal effect grade (Abutilon theophrasti) | Herbicidal effect grade, A: Echinochloa oryzacola Vasing. [3] | G: Setaria viridis, herbicidal effect grade (Setaria viridis) | Herbicidal effect grade, A: Echinochloa oryzacola Vasing. [4] | I (Avena fatua) herbicidal effect grade (Avena fatua) | J (Alopecurus myosuroides) herbicidal effect grade (Alopecurus myosuroides) | H (Echinochloa crus-galli var. crus-galli) herbicidal effect grade [5] | N: Amaranthus retroflexus, herbicidal effect grade (Amaranthus retroflexus) | c (corn) effect on crop grade (corn) | b: directly sowed rice plant, effect on crop grade (rice plant) | R: Veronica persica, herbicidal effect grade (Veronica persica) |
| --- | --- | --- | --- | --- | --- | --- | --- | --- | --- | --- | --- | --- | --- | --- | --- |
| CON=C(C)CC1CC(OC(=O)C(C)(C)F)=C(c2c(C)cc(C)cc2C)C1=O (stereo not drawn) [1-039] | 4 (Herbicidal ratio of 70% or higher and lower than 90%) | 5 (Herbicidal ratio of 90% or more (almost completely withered)) | 3 (Herbicidal ratio of 40% or higher and lower than 70%) | 5 (Herbicidal ratio of 90% or more (almost completely withered)) | 4 (Herbicidal ratio of 70% or higher and lower than 90%) | 5 (Herbicidal ratio of 90% or more (almost completely withered)) | 5 (Herbicidal ratio of 90% or more (almost completely withered)) | 5 (Herbicidal ratio of 90% or more (almost completely withered)) | 1 (Herbicidal ratio of 5% or higher and lower than 20%) | 5 (Herbicidal ratio of 90% or more (almost completely withered)) | 5 (Herbicidal ratio of 90% or more (almost completely withered)) | 4 (Herbicidal ratio of 70% or higher and lower than 90%) | 4 (Herbicidal ratio of 70% or higher and lower than 90%) | 5 (Herbicidal ratio of 90% or more (almost completely withered)) | – |
| CON=C(C)CC1CC(OC(=O)C(C)(C)OC(C)=O)=C(c2c(C)cc(C)cc2C)C1=O (stereo not drawn) [1-034] | 5 (Herbicidal ratio of 90% or more (almost completely withered)) | 5 (Herbicidal ratio of 90% or more (almost completely withered)) | – | 5 (Herbicidal ratio of 90% or more (almost completely withered)) | 4 (Herbicidal ratio of 70% or higher and lower than 90%) | 5 (Herbicidal ratio of 90% or more (almost completely withered)) | 5 (Herbicidal ratio of 90% or more (almost completely withered)) | 5 (Herbicidal ratio of 90% or more (almost completely withered)) | 5 (Herbicidal ratio of 90% or more (almost completely withered)) | 5 (Herbicidal ratio of 90% or more (almost completely withered)) | 5 (Herbicidal ratio of 90% or more (almost completely withered)) | 3 (Herbicidal ratio of 40% or higher and lower than 70%) | 4 (Herbicidal ratio of 70% or higher and lower than 90%) | 5 (Herbicidal ratio of 90% or more (almost completely withered)) | – |
| CC(CC1CC(O)=C(c2c(C)cc(C)cc2C)C1=O)=NOCc1ccccc1F (stereo not drawn) [1-026] | 3 (Herbicidal ratio of 40% or higher and lower than 70%) | 5 (Herbicidal ratio of 90% or more (almost completely withered)) | 1 (Herbicidal ratio of 5% or higher and lower than 20%) | 5 (Herbicidal ratio of 90% or more (almost completely withered)) | 0 (Herbicidal ratio of 5% or lower (almost no effect)) | 5 (Herbicidal ratio of 90% or more (almost completely withered)) | 5 (Herbicidal ratio of 90% or more (almost completely withered)) | 5 (Herbicidal ratio of 90% or more (almost completely withered)) | 3 (Herbicidal ratio of 40% or higher and lower than 70%) | 5 (Herbicidal ratio of 90% or more (almost completely withered)) | 5 (Herbicidal ratio of 90% or more (almost completely withered)) | 0 (Herbicidal ratio of 5% or lower (almost no effect)) | 0 (Herbicidal ratio of 5% or lower (almost no effect)) | 5 (Herbicidal ratio of 90% or more (almost completely withered)) | – |
| CON=C(CC1CC(O)=C(c2c(C)cc(C)cc2C)C1=O)C(C)(C)C (stereo not drawn) [1-059] | 0 (Herbicidal ratio of 5% or lower (almost no effect)) | 3 (Herbicidal ratio of 40% or higher and lower than 70%) | 0 (Herbicidal ratio of 5% or lower (almost no effect)) | 5 (Herbicidal ratio of 90% or more (almost completely withered)) | 0 (Herbicidal ratio of 5% or lower (almost no effect)) | 5 (Herbicidal ratio of 90% or more (almost completely withered)) | 4 (Herbicidal ratio of 70% or higher and lower than 90%) | 4 (Herbicidal ratio of 70% or higher and lower than 90%) | 0 (Herbicidal ratio of 5% or lower (almost no effect)) | 3 (Herbicidal ratio of 40% or higher and lower than 70%) | 4 (Herbicidal ratio of 70% or higher and lower than 90%) | 0 (Herbicidal ratio of 5% or lower (almost no effect)) | 3 (Herbicidal ratio of 40% or higher and lower than 70%) | 4 (Herbicidal ratio of 70% or higher and lower than 90%) | 0 (Herbicidal ratio of 5% or lower (almost no effect)) |
| CON=C(C)CC1CC(OC(=O)CCC2CCCCC2)=C(c2c(C)cc(C)cc2C)C1=O (stereo not drawn) [1-035] | 5 (Herbicidal ratio of 90% or more (almost completely withered)) | 5 (Herbicidal ratio of 90% or more (almost completely withered)) | – | 5 (Herbicidal ratio of 90% or more (almost completely withered)) | 4 (Herbicidal ratio of 70% or higher and lower than 90%) | 5 (Herbicidal ratio of 90% or more (almost completely withered)) | 5 (Herbicidal ratio of 90% or more (almost completely withered)) | 5 (Herbicidal ratio of 90% or more (almost completely withered)) | 4 (Herbicidal ratio of 70% or higher and lower than 90%) | 5 (Herbicidal ratio of 90% or more (almost completely withered)) | 5 (Herbicidal ratio of 90% or more (almost completely withered)) | 3 (Herbicidal ratio of 40% or higher and lower than 70%) | 4 (Herbicidal ratio of 70% or higher and lower than 90%) | 5 (Herbicidal ratio of 90% or more (almost completely withered)) | – |
| CON=C(C)CC1CC(OC(=O)C(C)(C)Oc2ccc(Cl)cc2)=C(c2c(C)cc(C)cc2C)C1=O (stereo not drawn) [1-051] | 4 (Herbicidal ratio of 70% or higher and lower than 90%) | 5 (Herbicidal ratio of 90% or more (almost completely withered)) | 3 (Herbicidal ratio of 40% or higher and lower than 70%) | 5 (Herbicidal ratio of 90% or more (almost completely withered)) | 4 (Herbicidal ratio of 70% or higher and lower than 90%) | 5 (Herbicidal ratio of 90% or more (almost completely withered)) | 5 (Herbicidal ratio of 90% or more (almost completely withered)) | 5 (Herbicidal ratio of 90% or more (almost completely withered)) | 3 (Herbicidal ratio of 40% or higher and lower than 70%) | 5 (Herbicidal ratio of 90% or more (almost completely withered)) | 5 (Herbicidal ratio of 90% or more (almost completely withered)) | 1 (Herbicidal ratio of 5% or higher and lower than 20%) | 4 (Herbicidal ratio of 70% or higher and lower than 90%) | 5 (Herbicidal ratio of 90% or more (almost completely withered)) | 0 (Herbicidal ratio of 5% or lower (almost no effect)) |
